System: Plasmodium berghei
Test: Luciferase/luciferin-expressing antifolate-resistant parasites were used to infect a culture of HepG2 cells that were pre-incubated with compounds. Infected hepatocytes emit light due to the luciferase reaction. Assay results are presented as the percent inhibition of light emission compared to control. […]
Assay type: functional
Conditions: sporozoite; for IC90: read-out: LUCIFERASE INFECTION ASSAY - IC90

| Compound | IC90 | other results |
| --- | --- | --- |
| CC(NC(=O)COc1ccc(-c2nnco2)cc1)c1ccc(Cl)cc1Cl (configuration not stated) | > 10 µM | IC50 (FFLUC_HILL_SLOPE 0.318, FFLUC_R_SQUARED 0.016, read-out: LUCIFERASE INFECTION ASSAY - IC50): > 10 µM |
| CC(=O)Nc1cccc(-c2ccnc3c2CC(C(=O)NCc2ccco2)O3)c1 (configuration not stated) | 6.23 µM | IC50 (FFLUC_HILL_SLOPE 0.324, FFLUC_R_SQUARED 0.726, HEPG2TOX_HILL_SLOPE 3.12, HEPG2TOX_R_SQUARED 0.86, PBLUC_HILL_SLOPE 2.84, PBLUC_R_SQUARED 0.407, read-out: LUCIFERASE INFECTION ASSAY - IC50): 2.87 µM |
| CC1(C(=O)NCc2ccco2)Cc2c(-c3ccc4c(c3)OCO4)ccnc2O1 (configuration not stated) | > 8.72 µM | IC50 (FFLUC_HILL_SLOPE 0.436, FFLUC_R_SQUARED 0.176, HEPG2TOX_HILL_SLOPE 1.94, HEPG2TOX_R_SQUARED 0.783, PBLUC_HILL_SLOPE 1.2, PBLUC_R_SQUARED 0.613, read-out: LUCIFERASE INFECTION ASSAY - IC50): 2.28 µM |
| NS(=O)(=O)c1ccc(Nc2nc(-c3ccc(Cl)s3)cs2)cc1 | > 10 µM | IC50 (FFLUC_HILL_SLOPE 0.347, FFLUC_R_SQUARED 0.604, read-out: LUCIFERASE INFECTION ASSAY - IC50): > 10 µM |
| N#C/C(=C\N1CCN(Cc2ccccc2)CC1)S(=O)(=O)c1ccccn1 | > 8.96 µM | IC50 (FFLUC_HILL_SLOPE 0.433, FFLUC_R_SQUARED 0.0165, read-out: LUCIFERASE INFECTION ASSAY - IC50): > 8.96 µM |
| CCOC(=O)c1c(S(=O)(=O)N2CCN(c3ncccc3C(F)(F)F)CC2)c(-c2ccccc2)n(-c2ccccc2)c1C | > 5.51 µM | IC50 (FFLUC_HILL_SLOPE 0.343, FFLUC_R_SQUARED 0.352, PBLUC_HILL_SLOPE 1.97, PBLUC_R_SQUARED 0.72, read-out: LUCIFERASE INFECTION ASSAY - IC50): > 5.51 µM |
| CC(=O)Nc1ccc2c(COC(=O)C(CC(C)C)NC(=O)c3ccc(Cl)cc3)cc(=O)oc2c1 (configuration not stated) | > 10 µM | IC50 (FFLUC_HILL_SLOPE 0.303, FFLUC_R_SQUARED 0.675, read-out: LUCIFERASE INFECTION ASSAY - IC50): > 10 µM |
| CNC(=S)N/N=C1\C(=O)Nc2ccc(C(C)C)cc21 | > 10 µM | IC50 (FFLUC_HILL_SLOPE 0.391, FFLUC_R_SQUARED 0.18, PBLUC_HILL_SLOPE 8.53, PBLUC_R_SQUARED 0.15, read-out: LUCIFERASE INFECTION ASSAY - IC50): 8.69 µM |
| Cc1ccc(S(=O)(=O)/N=C2\C=C3N(CCO)CCOC3(O)c3ccccc32)c(C)c1 (configuration not stated) | 6.56 µM | IC50 (FFLUC_HILL_SLOPE 0.405, FFLUC_R_SQUARED 0.0273, HEPG2TOX_HILL_SLOPE 10.4, HEPG2TOX_R_SQUARED 0.538, PBLUC_HILL_SLOPE 3.34, PBLUC_R_SQUARED 0.51, read-out: LUCIFERASE INFECTION ASSAY - IC50): 3.4 µM |
| CC1(C)CCc2cc(/C=N/NC(=O)c3ccc(Cl)cc3)ccc2O1 | > 9.63 µM | IC50 (FFLUC_HILL_SLOPE 0.306, FFLUC_R_SQUARED 0.456, PBLUC_HILL_SLOPE 2.8, PBLUC_R_SQUARED 0.043, read-out: LUCIFERASE INFECTION ASSAY - IC50): 6.8 µM |
| Cc1ccc(-c2nn(-c3ccccc3)c3[nH]c(-c4ccccc4)cc(=O)c23)cc1 | > 10 µM | IC50 (FFLUC_HILL_SLOPE 0.301, FFLUC_R_SQUARED 0.0383, PBLUC_HILL_SLOPE 15, PBLUC_R_SQUARED 0.1, read-out: LUCIFERASE INFECTION ASSAY - IC50): 9.8 µM |
| CN(Cc1ccc(Cl)cc1Cl)C(=O)c1ccc(NC(=O)C2CC2)cc1 | > 10 µM | IC50 (FFLUC_HILL_SLOPE 0.429, FFLUC_R_SQUARED 0.32, PBLUC_HILL_SLOPE 3.47, PBLUC_R_SQUARED 0.753, read-out: LUCIFERASE INFECTION ASSAY - IC50): 6.88 µM |
| O=c1c2c3c(sc2nc(SCc2cc([N+](=O)[O-])cc4c2OCOC4)n1C1CCCC1)CCCC3 | > 10 µM | IC50 (FFLUC_HILL_SLOPE 0.343, FFLUC_R_SQUARED 0.0189, read-out: LUCIFERASE INFECTION ASSAY - IC50): > 10 µM |
| Cc1cc(C(=O)OCC(=O)NC(=O)NC(C)(C)C)c(C)n1-c1ccccc1 | > 10 µM | IC50 (FFLUC_HILL_SLOPE 0.365, FFLUC_R_SQUARED 0.0382, read-out: LUCIFERASE INFECTION ASSAY - IC50): > 10 µM |
| CCOC(=O)c1c(-c2ccc(OC)cc2)csc1NC(=O)CSc1nc(C)nc2sc3c(c12)CCC3 | > 10 µM | IC50 (FFLUC_HILL_SLOPE 0.459, FFLUC_R_SQUARED 0.138, read-out: LUCIFERASE INFECTION ASSAY - IC50): > 10 µM |
| CNc1nc(-c2[nH]c(C)c(C(=O)OC)c2C)cs1 | 2.11 µM | IC50 (FFLUC_HILL_SLOPE 0.348, FFLUC_R_SQUARED 0.146, HEPG2TOX_HILL_SLOPE 0.722, HEPG2TOX_R_SQUARED 0.883, PBLUC_HILL_SLOPE 1.52, PBLUC_R_SQUARED 0.828, read-out: LUCIFERASE INFECTION ASSAY - IC50): 0.496 µM |

| Compound | IC90 | other results |
| --- | --- | --- |
| O=C(Nc1ccc(CN2CCCC2)cc1)c1[nH]nc2ccccc12 | 5.09 µM | IC50 (FFLUC_HILL_SLOPE 0.453, FFLUC_R_SQUARED 0.794, PBLUC_HILL_SLOPE 1.12, PBLUC_R_SQUARED 0.946, read-out: LUCIFERASE INFECTION ASSAY - IC50): 0.718 µM |
| N#Cc1ccc(-c2cnc3cnc(-c4cnn(Cc5ccccc5)c4)cn23)cc1 | > 8.77 µM | IC50 (FFLUC_HILL_SLOPE 0.364, FFLUC_R_SQUARED 0.0429, PBLUC_HILL_SLOPE 3.85, PBLUC_R_SQUARED 0.0396, read-out: LUCIFERASE INFECTION ASSAY - IC50): 7.64 µM |
| O=C(NC1CC1)c1ccc(-c2cn3c(-c4ccc(CO)cc4)cnc3cn2)cc1 | > 8.58 µM | IC50 (FFLUC_HILL_SLOPE 0.381, FFLUC_R_SQUARED 0.0382, PBLUC_HILL_SLOPE 16.7, PBLUC_R_SQUARED 0.0287, read-out: LUCIFERASE INFECTION ASSAY - IC50): 8.32 µM |
| COc1ccc(-c2cnc3cnc(-c4cccc(N)c4)cn23)cc1 | 1.68 µM | IC50 (FFLUC_HILL_SLOPE 0.419, FFLUC_R_SQUARED 0.0515, PBLUC_HILL_SLOPE 8.9, PBLUC_R_SQUARED 0.87, read-out: LUCIFERASE INFECTION ASSAY - IC50): 1.31 µM |
| CCNC(=S)NNC(=O)/C=C/c1ccccc1OC | > 10 µM | IC50 (FFLUC_HILL_SLOPE 0.401, FFLUC_R_SQUARED 0.162, HEPG2TOX_HILL_SLOPE 12.3, HEPG2TOX_R_SQUARED 0.97, read-out: LUCIFERASE INFECTION ASSAY - IC50): > 10 µM |
| Cc1ccc(C(CN2CCOCC2)Nc2nc(C(F)(F)F)nc3ccccc23)cc1 (configuration not stated) | 3.63 µM | IC50 (FFLUC_HILL_SLOPE 0.43, FFLUC_R_SQUARED 0.0433, PBLUC_HILL_SLOPE 12.3, PBLUC_R_SQUARED 0.751, read-out: LUCIFERASE INFECTION ASSAY - IC50): 3.04 µM |
| Cc1ccc(Nc2cc(C)nc3c(-c4ccccc4)cnn23)cc1 | > 10.5 µM | IC50 (FFLUC_HILL_SLOPE 0.324, FFLUC_R_SQUARED 0.749, HEPG2TOX_HILL_SLOPE 3.12, HEPG2TOX_R_SQUARED 0.973, read-out: LUCIFERASE INFECTION ASSAY - IC50): > 10.5 µM |
| Cc1ccc(C)c(Oc2ccc(NC(=O)Nc3ccc(SC(F)(F)F)cc3)cn2)c1 | 2.68 µM | IC50 (FFLUC_HILL_SLOPE 0.447, FFLUC_R_SQUARED 0.395, HEPG2TOX_HILL_SLOPE 4.72, HEPG2TOX_R_SQUARED 0.964, PBLUC_HILL_SLOPE 32.1, PBLUC_R_SQUARED 0.384, read-out: LUCIFERASE INFECTION ASSAY - IC50): 2.5 µM |
| CC(C)(C)c1ccc(C(=O)NNC(=S)Nc2ccccc2)cc1 | > 10.1 µM | IC50 (FFLUC_HILL_SLOPE 0.417, FFLUC_R_SQUARED 0.371, PBLUC_HILL_SLOPE 1.47, PBLUC_R_SQUARED 0.465, read-out: LUCIFERASE INFECTION ASSAY - IC50): 3.05 µM |
| COC(=O)c1cc(C#N)c(Sc2ncc([N+](=O)[O-])s2)nc1C(OC)OC | > 8.32 µM | IC50 (FFLUC_HILL_SLOPE 0.469, FFLUC_R_SQUARED 0.297, HEPG2TOX_HILL_SLOPE 12.3, HEPG2TOX_R_SQUARED 0.829, PBLUC_HILL_SLOPE 2.84, PBLUC_R_SQUARED 0.141, read-out: LUCIFERASE INFECTION ASSAY - IC50): > 8.32 µM |
| N#CC(Cc1ccccc1)Sc1nnc(-c2ccccc2)n1-c1ccccc1 (configuration not stated) | > 10 µM | IC50 (FFLUC_HILL_SLOPE 0.339, FFLUC_R_SQUARED 0.0197, read-out: LUCIFERASE INFECTION ASSAY - IC50): > 10 µM |
| CN(C)c1ccccc1-c1cn2c(-c3ccc4c(ccn4C)c3)cnc2cn1 | 1.24 µM | IC50 (FFLUC_HILL_SLOPE 0.352, FFLUC_R_SQUARED 0.0452, HEPG2TOX_HILL_SLOPE 0.416, HEPG2TOX_R_SQUARED 0.805, PBLUC_HILL_SLOPE 0.654, PBLUC_R_SQUARED 0.684, read-out: LUCIFERASE INFECTION ASSAY - IC50): 0.043 µM |
| Cc1c(C)n(CCCO)c2ncn3nc(-c4ccc(N(C)C)cc4)nc3c12 | 3.79 µM | IC50 (FFLUC_HILL_SLOPE 0.464, FFLUC_R_SQUARED 0.882, PBLUC_HILL_SLOPE 0.457, PBLUC_R_SQUARED 0.781, read-out: LUCIFERASE INFECTION ASSAY - IC50): 0.0311 µM |
| Cc1cc(C)c(C#N)c(SCc2nc(-c3ccsc3)no2)n1 | 0.328 µM | IC50 (FFLUC_HILL_SLOPE 0.467, FFLUC_R_SQUARED 0.935, PBLUC_HILL_SLOPE 1.22, PBLUC_R_SQUARED 0.907, read-out: LUCIFERASE INFECTION ASSAY - IC50): 0.0542 µM |
| Cc1cc(NC(c2cccc(Br)c2)c2ccc3cccnc3c2O)no1 (configuration not stated) | 5.63 µM | IC50 (FFLUC_HILL_SLOPE 0.447, FFLUC_R_SQUARED 0.211, HEPG2TOX_HILL_SLOPE 1.34, HEPG2TOX_R_SQUARED 0.983, PBLUC_HILL_SLOPE 2.79, PBLUC_R_SQUARED 0.445, read-out: LUCIFERASE INFECTION ASSAY - IC50): 2.56 µM |

— ChEMBL document CHEMBL4483862, “Open-source discovery of chemical leads for next-generation chemoprotective antimalarials” (2018)
